Results published in patent US8580843B2, “Use of diindolylmethane (DIM) compounds and derivatives as neuroprotective agents” (Colorado State University Research Foundation, priority 2008, dated 2013).

Assays:
[1] = tested on: astrocyte activation, NOS2 and NF-κB/GFP expression in striatum; assay: Anti-inflammatory efficacy in transgenic NF-κB-GFP reporter mice treated with MPTP; format: in vivo, mice (C57B1/6 background); conditions: 50 mg/Kg oral gavage in corn oil once per day for four days following MPTP; striatum 7 days following MPTP
Experimental: Transgenic NF-κB-GFP reporter mice (C57B1/6 background) were exposed to MPTP (2 injections of 15 mg/kg, 12 hours apart) in the presence and absence of DIM-C-pPhtBu and assessed for activation of astrocytes, expression of NOS2, and expression of GFP (representing NF-kB activity). DIM-C-pPhtBu was administered once per day for four days following MPTP treatment by oral gavage in corn oil at 50 mg/Kg and frozen sections through the striatum were prepared 7 days following MPTP. Immunofluorescent images were collected using a 40× Zeiss PlanApochromat objective for GFAP as marker for astrocytes (purple), NOS2 (red), green fluorescent protein (GFP; green), and DAPI (blue; DNA stain). Co-location of red and green channels is depicted in the image as yellow. […] This activated glial phenotype was inhibited by treatment with DIM-C-pPhtBu.

[2] = tested on: 3-nitrotyrosine protein nitration in astrocytes; assay: Immunofluorescence of 3-nitrotyrosine adducts (protein nitration) in primary astrocytes treated with MPTP and cytokines; format: cell-based, mouse
Experimental: Immunofluorescence. Primary astrocytes were grown to confluence on 20 mm serum-coated glass coverslips and treated with saline or MPTP (10 μM), TNF-α (10 pg/ml), and IFN-γ (1 ng/ml) with or without DIM-C-pPhtBu (10 μM), rosiglitazone (10 μM), the NOS2 inhibitor AMT (25 nM) or NOS 1 inhibitor 7-NI (10 μM), or a DMSO vehicle control 8 hours prior to analysis. Immunofluorescence to confirm culture purity was conducted on cells grown to confluence on the 20 mm glass coverslips. Blocking and antibody hybridization was conducted in 1% BSA (w/v) in PBS, and all washes were conducted in PBS. Images were acquired using a Zeiss 20× air PlanApochromat objective and 6-8 microscopic fields were examined per treatment group over no less than three independent experiments. Fluorescent secondary antibodies were used to detect GFAP (488 nmcx/519 nmcm) and Iba1 or nitrosylated protein (647 nmcx/668 nmcm), respectively, while mounting medium containing DAPI (360 nmcx/460 nmcm) was used to identify cell nuclei.
The effect of NOS2 induction by MPTP and inflammatory cytokines on global protein nitration following NO/peroxynitrite (ONOO—) formation in astrocytes was examined by immunofluorescence (FIG. 3). Immunofluorescence using antibodies against GFAP (FITC) and 3-nitrotyrosine adducts (Cy5) was employed to measure the extent of protein nitration within astrocytes treated with MPTP and cytokines, with or without inclusion of DIM-C-pPhtBu (10 μM), rosiglitazone (10 μM), the high-affinity NOS2 inhibitor AMT (25 nM), the NOSI inhibitor 7-NI (10 μM) or a DMSO vehicle control. […] Co-treatment of astroytes with DIM-C-pPhtBu prevented MPTP-induced increases in nitration, resulting in similar levels of 3-nitrotyrosine adducts as saline-treated control cells (FIG. 3C). Mean intracellular fluorescence for 3-nitrotyrosine was quantified and compared between each treatment group (FIG. 3D).

[3] = tested on: 3-nitrotyrosine protein adducts in dopaminergic neurons of the substantia nigra; assay: Protein nitration in dopaminergic neurons of mice treated with MPTP; format: in vivo, C57B1/6 mice; conditions: 50 mg/Kg oral gavage in corn oil once per day for four days following MPTP; substantia nigra 7 days following MPTP
Experimental: C57B1/6 mice were treated with MPTP (2 injections of 15 mg/kg, 12 hours apart) in the presence and absence of DIM-C-pPhOCH3 (DIM5) and assessed for 3-nitrotyrosine protein adducts (a marker of nitrosative stress and excessive NO/peroxynitrite formation). DIM-C-pPhOCH3 was administered once per day for four days following MPTP treatment by oral gavage in corn oil at 50 mg/Kg and frozen sections through the substantia nigra were prepared 7 days following MPTP. Immunofluorescence images were collected using a 40× Zeiss PlanApochromat objective for tyrosine hydroxylase (green), 3-nitrotyrosine (red), and DAPI (blue; DNA/nuclear stain). […] DIM-C-pPhOCH3 prevented protein nitration in dopaminergic neurons in mice treated with MPTP.

[4] = tested on: NF-κB; conditions: proximal p65 enhancer element; cited from earlier work

## CC(C)(C)c1ccc(C(c2c[nH]c3ccccc23)c2c[nH]c3ccccc23)cc1 [DIM-C-pPhtBu, 1,1-bis(3′-indolyl)-1-(p-t-butylphenyl)methane]
[1]
  MPTP-induced activated glial phenotype (hypertrophic astrocytes expressing NOS2 and NF-κB/GFP): inhibited
[2]; 10 μM co-treatment, astrocytes, FIG. 3D
  MPTP-induced increase in 3-nitrotyrosine formation: prevented

## COc1ccc(C(c2c[nH]c3ccccc23)c2c[nH]c3ccccc23)cc1 [DIM-C-pPhOCH3, 1,1-bis(3′-indolyl)-1-(p-methoxyphenyl)methane]
[3]
  Protein nitration (3-nitrotyrosine) in dopaminergic neurons: completely suppressed
[2]; FIG. 7(D), concentration not given
  Protein nitration in primary astrocytes induced by MPTP and TNF-α/IFN-γ: prevents protein nitration

## CN(CCOc1ccc(CC2SC(=O)NC2=O)cc1)c1ccccn1 (centres unmarked) [rosiglitazone, 5-((4-(2-(methyl-2-pyridinylamino)ethoxy)phenyl)methyl)-2,4-thiazolidinedione, reference compound]
[4]
  Effect on NF-κB in RAW macrophages: antagonize NF-κB by stabilizing NCoR2
